The values that follow come from publication PMC6017957, “Synthesis, Anti-Proliferative Activity Evaluation and 3D-QSAR Study of Naphthoquinone Derivatives as Potential Anti-Colorectal Cancer Agents” (Molecules : A Journal of Synthetic Chemistry and Natural …, 2018).

SMILES strings stand for the structures. Like-named read-outs stand apart in the source and are kept apart here.

One series concerns fibroblasts PCS-201-012. In words: MTT cytotoxicity assay against normal dermal fibroblasts. Format: cell-based. The conditions noted are these: Fibroblast, value with 95% confidence interval, read-out: PCS-201-012 IC50 μM (95% CI). As for the experimental part: (§1) The toxicity of the thirty-six compounds was determined in vitro by means of the MTT assay. Doxorubicin, a drug widely used to treat different types of cancer, was employed as a positive control, whereas the solvent (DMSO) was used as negative control.
(§2) Test compounds were dissolved in DMSO to obtain stock solutions that were maintained as small aliquots at −20 °C. At time of drug addition, an aliquot was thawed and diluted to obtain the desired final maximum test concentration of 100 μM, with complete medium. The final percentage of DMSO in the wells was less than 1% (v/v). […] Anti-Proliferative Assay
(§3) Doxorubicin, a drug widely used to treat different types of cancer, was used as a positive control. After 48 h, the medium was removed and cells were incubated with MTT solution (0.25 mg/mL). Four hours later, the medium was carefully aspired and formazan crystals were dissolved in DMSO (100 μL). The OD550 was measured using a plate reader (Multiskan Go, Thermo Scientific, Waltham, MA, USA). […] The selectivity index (SI), was calculated as a ratio of IC50Fibroblast/IC50HT-29cells.
(§4) The results are expressed as the mean of triplicate measurements in at least two independent experiments.

Series [1] deals with HT-29 colorectal cancer cells. The series can be described thus: MTT anti-proliferative assay against HT-29 cells. Format: cell-based, human. The conditions noted are these: for IC50: Homo sapiens; for Selectivity Index: SI = IC50Fibroblast/IC50HT-29cells; for Cytotoxic activity category against HT-29: classified by HT-29 IC50. How it is done: as §1, §2, §3, §4
(In general: Formazan colour is commonly taken as a measure of viable cells.)

Setting [2] is: HT-29, 48 h, MTT, 48 h, 0–100 µM, value with 95% confidence interval, read-out: HT-29 IC50 μM (95% CI).
Setting [3] is: HT-29, −logIC50 against HT-29, CoMFA training and test sets, read-out: pIC50 Experimental (converted).

For `CCCCc1cc2c(o1)-c1ccccc1C(=O)C2=O` [Compound 4i, 2-Butylnaphtho[1,2-b]furan-4,5-dione], the melting point was found to be 64 °C. Moreover, the IC50 in the series with fibroblasts PCS-201-012 came to 3.86 µM. The IC50 in series [1] (setting [2]) was 9.16 µM. For the same molecule, the IC50 in series [1] (setting [3]) is 9.16 µM. For the same molecule, in series [1], the “Selectivity Index” value is on record as 0.42 and the “Cytotoxic activity category against HT-29” value is “highly active”.
Regarding `O=C1c2ccccc2C(=O)c2occc21` [Compound 4j, Naphtho[2,3-b]furan-4,9-dione], the melting point is 229.4 °C. Besides, the IC50 in the series with fibroblasts PCS-201-012 came out at 8.28 µM. Further, the IC50 in series [1] (setting [2]) is 8.2 µM. For the same molecule, in series [1] (setting [3]), the IC50 was 8.2 µM. In addition, in series [1], the “Selectivity Index” value stood at 1.01 and the “Cytotoxic activity category against HT-29” value was “highly active”.
Molecule `COC1(C(C)=O)CC2=C(O1)C(=O)c1ccccc1C2=O` (centres unmarked) [Compound 4l, 2-Acetyl-2-methoxy-2,3-dihydronaphtho[2,3-b]furan-4,9-dione] returned a melting point of 145 °C. The IC50 with fibroblasts PCS-201-012 was 12.9 µM. For the same molecule, the IC50 in series [1] (setting [2]) amounted to 34.9 µM. The “Selectivity Index” value in series [1] stood at 0.37.
For the molecule `C=C(C)C1(C)CC2=C(O1)C(=O)c1ccccc1C2=O` (centres unmarked) [Compound 4o, 2-Methyl-2-(prop-1-en-2-yl)-2,3-dihydronaphtho[2,3-b]furan-4,9-dione], the melting point worked out at 135 °C. In addition, in the series with fibroblasts PCS-201-012, the IC50 came out at 47.9 µM. For the same molecule, in series [1] (setting [2]), the IC50 was 25.8 µM.
Regarding `C=C(C)C1(C)CC2=C(O1)c1ccccc1C(=O)C2=O` (centres unmarked) [Compound 4p, 2-Methyl-2-(prop-1-en-2-yl)-2,3-dihydronaphtho[1,2-b]furan-4,5-dione], the melting point is 147 °C. In addition, in the series on fibroblasts PCS-201-012, the IC50 was determined as 4.19 µM. Besides, in series [1] (setting [2]), the IC50 is 28.1 µM. For the same molecule, in series [1], the “Selectivity Index” value turned out to be 0.15.
For `CC1(C)OC2=C(C(=O)C(=O)c3ccccc32)C1(C)C` [Compound 4s, 2,2,3,3-Tetramethyl-2,3-dihydronaphtho[1,2-b]furan-4,5-dione], the melting point is 91 °C. Also, the IC50 in the series on fibroblasts PCS-201-012 was 19.9 µM. For the same molecule, the IC50 in series [1] (setting [2]) amounted to 18.1 µM. In addition, in series [1] (setting [3]), the IC50 was 18.1 µM. The “Selectivity Index” value in series [1] is 1.10.
`C=CC1(C)CC2=C(O1)c1ccccc1C(=O)C2=O` (centres unmarked) [Compound 4t, 2-Ethenyl-2-methyl-2,3-dihydronaphtho[1,2-b]furan-4,5-dione] gave a melting point of 150 °C. In the series on fibroblasts PCS-201-012, the IC50 stood at 19.7 µM. The IC50 in series [1] (setting [2]) is 88.1 µM. The “Selectivity Index” value in series [1] is listed as 0.22.

As usually defined, the melting point is the temperature of the solid-liquid transition.
